Like-named read-outs stand apart in the source and are kept apart here. Numbered stars: 1 amine (or outer) side, 2 acyl side, 3 side chain; on linkers, the order of the positions; unused ones are H or OH. Square brackets hold non-standard residues; d marks the D form. Peptide text beside a SMILES is read from it. * marks the point of attachment. Ala(6-iPr-benzothiazol-2-yl) = CC(C)c1ccc2nc(C[C@H](N)C(=O)O)sc2c1; Ala(benzothiazol-2-yl) = N[C@@H](Cc1nc2ccccc2s1)C(=O)O; 2Nal = N[C@@H](Cc1ccc2ccccc2c1)C(=O)O; tBuAla = CC(C)(C)C[C@H](N)C(=O)O; Cha = N[C@@H](CC1CCCCC1)C(=O)O; Chg = N[C@H](C(=O)O)C1CCCCC1; CO = O=C([*:1])[*:2]; Propionyl = CCC(=O)*; For = O=C*
Molecular target: DCN1 (Homo sapiens (Human), UniProt Q96GG9)
Sequence (Q96GG9 58-259): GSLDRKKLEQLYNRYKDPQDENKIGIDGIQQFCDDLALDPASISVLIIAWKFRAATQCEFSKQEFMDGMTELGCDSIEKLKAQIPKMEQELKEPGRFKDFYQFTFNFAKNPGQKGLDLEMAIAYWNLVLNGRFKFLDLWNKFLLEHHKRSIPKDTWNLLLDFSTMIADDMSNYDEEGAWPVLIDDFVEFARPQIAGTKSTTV
Experiment: Competitive FP binding assay
In short: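 FP competition with DCN1 in 100 mM phosphate pH 6.5, 0.02% Tween-20, 2% DMSO, probe 5 nM final. Equilibrated 30 min at room temperature with shaking. DCN1 was His6-tagged (uncleaved), expressed in E. coli Rosetta2 and purified by Ni-NTA and gel filtration.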

[1] = read-out: Binding affinity to DCN1 (IC50 (nM))
[2] = bounds given in μM, read-out: Binding affinity to DCN1 (IC50)

SMILES	IC50 [1] [nM]	IC50 [2] [nM]
CCC(=O)N[C@@H](Cc1nc2ccc(C(C)C)cc2s1)C(=O)N[C@H](CNC(=O)C12CCN(CC1)CC2)C1CCCCC1 [Example 64]	36	
CCC(=O)N[C@@H](Cc1ccc2ccccc2n1)C(=O)N[C@H](C(=O)N[C@@H](CCCCN)C(=O)NC(c1ccccc1)c1ccccc1)[C@@H](C)CC [Example 130]	2360	
CCC(=O)N[C@@H](Cc1nc2ccc(Cl)cc2s1)C(=O)N[C@H](C(=O)N[C@@H](CCCCN)C(=O)NCc1cccnc1)C1CCOCC1 [Example 242]	1200	
CCC(=O)N[C@H](CNC(=O)CC1CCCC1)Cc1nc2ccc(Cl)cc2s1 [Example 255]	802	
CCC(=O)N[C@@H](Cc1ccc2ccccc2c1)C(=O)N[C@H](C(=O)N[C@@H](CN(C)C)C(=O)NC(c1ccc(F)cc1)c1ccc(F)cc1)C1CCCC1 [Example 139]		> 10000
CCC(=O)N[C@@H](Cc1nc2ccc(Cl)cc2s1)C(=O)N[C@H](C(=O)N[C@@H](CCCCN)C(=O)N[C@H]1CNCc2ccccc21)C1CCCC1 [Example 162]	797	
CCC(=O)N[C@@H](Cc1nc(C)c(-c2cccc(Br)c2)s1)C(=O)N[C@H](CN)Cc1ccccc1 [Example 232]	984	
CCC(=O)N[C@@H](Cc1nc2ccccc2o1)C(=O)N[C@H](C(=O)N[C@@H](CCCCN)C(=O)NC(c1ccccc1)c1ccccc1)[C@@H](C)CC [Example 154]	981	
CCC(=O)N[C@H](CNC(=O)C1(N)CCC(C)(C)CC1)Cc1nc2ccc(C(C)C)cc2s1 [Example 269]		> 10000
CCC(=O)N[C@H](Cc1ccc2ccccc2c1)C(=O)N[C@H](C(=O)N[C@@H](CCCCN)C(=O)NC(c1ccccc1)c1ccccc1)C1CCCC1 [Example 145]		> 10000
CCC(=O)N[C@@H](Cc1nc2ccc(C(C)C)cc2s1)C(=O)N[C@@H](CN)Cc1ccccc1 [Example 90]		> 5000
CCC(=O)N[C@@H](Cc1ccc2ccccc2c1)C(=O)N[C@H](C(=O)N[C@@H](CCCCN)C(=O)NC(c1ccc(Cl)cc1)c1ccc(Cl)cc1)[C@@H](C)CC [Example 129]	748	
CCC(=O)N[C@@H](Cc1nc2ccc(C)cc2s1)C(=O)N[C@H](C(=O)N[C@@H](CCCCN)C(=O)N[C@@H]1CCOc2ccccc21)C1CCNCC1 [Example 180]		> 1000
CCC(=O)N[C@@H](Cc1nc2ccc(Cl)cc2s1)C(=O)N[C@H](C(=O)N[C@@H](CCCCN)C(=O)N[C@@H]1CCOc2ccccc21)C1CCNCC1 [Example 35]		> 5000
CCC(=O)N[C@@H](Cc1nc(C)c(-c2ccccn2)s1)C(=O)N[C@H](CN)Cc1ccccc1 [Example 228]		> 10000
CCC(=O)N[C@@H](Cc1cc2ccccc2cn1)C(=O)N[C@H](C(=O)N[C@@H](CCCCN)C(=O)NC(c1ccccc1)c1ccccc1)[C@@H](C)CC [Example 131]	2610	
CC[C@H](C)[C@H](NC(=O)[C@H](Cc1ccc2ccccc2c1)NC(C)=O)C(=O)N[C@@H](CCCCN)C(=O)N[C@@H](CC(C)C)C(N)=O [Example 1] (Ac-[2Nal]IKL-NH2)		> 10000
CCC(=O)N[C@H](CN)Cc1nc2ccc(C(C)C)cc2s1 [Example 109]		> 10000
CCC(=O)N[C@H](Cc1nc2ccc(Cl)cc2s1)C(=O)N[C@@H](C(=O)N[C@H](CCCCN)C(=O)N[C@H]1CCOc2ccccc21)C1CCOCC1 [Example 204]		> 10000
CC(C)c1ccc2nc(C[C@H](NC(=O)C3CC3)C(=O)NCCN)sc2c1 [Example 96]		> 10000
CCC(=O)N[C@@H](Cc1nc2cc(Cl)ccc2s1)C(=O)N[C@H](C(=O)N[C@@H](CCCCN)C(=O)NC(c1ccccc1)c1ccccc1)[C@@H](C)CC [Example 153]	1900	
CC[C@H](C)[C@H](NC(=O)[C@H](Cc1ccc2ccccc2c1)NC(=O)NC)C(=O)N[C@@H](CCCCN)C(=O)N[C@@H](CC(C)C)C(N)=O [Example 169] ({NHMe-CO}-[2Nal]IKL-NH2)		> 10000

The remaining molecules from weak to strong by IC50 [1], led by results:

IC50 [1] [nM]	IC50 [2] [nM]	SMILES
746 ± 72		CCC(=O)N[C@@H](Cc1nc2ccc(Cl)cc2s1)C(=O)N[C@H](CN)[C@@H](C)CC [Example 213]
656		CCC(=O)N[C@@H](Cc1nc2ccc(C(C)C)cc2s1)C(=O)N[C@H](Cn1cc(CO)nn1)C1CCCCC1 [Example 83]
471		CCC(=O)N[C@@H](Cc1nc2ccc(Cl)cc2s1)C(=O)N[C@H](CNC(=O)[C@@H](C)CN1CCOCC1)Cc1ccccc1 [Example 227]
412		CCC(=O)N[C@@H](Cc1nc2ccc(C)cc2s1)C(=O)N[C@H](C(=O)N[C@H](C(=O)N[C@@H]1CCOc2ccccc21)C1CCNCC1)C1CCOCC1 [Example 190]
402		CCC(=O)N[C@@H](Cc1ccc2ccccc2c1)C(=O)N[C@H](C(=O)N[C@@H](CCCCN)C(=O)N[C@@H]1CCCc2ccccc21)C1CCCC1 [Example 148]
397		CCC(=O)N[C@@H](Cc1nc2ccccc2s1)C(=O)N[C@H](C(=O)N[C@@H](CCCCN)C(=O)NC(c1ccccc1)c1ccccc1)C1CCCC1 [Example 25]
376		CCC(=O)N[C@@H](Cc1nc2ccccc2s1)C(=O)N[C@H](C(=O)N[C@@H](CCCCN)C(=O)NC(c1ccccc1)c1ccccc1)[C@@H](C)CC [Example 152]
346		CCC(=O)N[C@@H](Cc1nc2ccc(Cl)cc2s1)C(=O)N[C@H](CN)C1CCCCC1 [Example 217]
322		CC[C@H](C)[C@H](NC(=O)[C@H](Cc1nc2ccccc2s1)NC(C)=O)C(=O)N[C@@H](CCCCN)C(=O)N[C@@H](CC(C)C)C(N)=O [Example 2, (S)-2-((2S,3 S)-2-((S)-2-acetamido-3-(benzo[d]thiazol-2-yl)propanamido)-3-methylpentanamido)-6-amino-N—((S)-1-amino-4-methyl-1-oxopentan-2-yl)hexanamide] (Ac-[Ala(benzothiazol-2-yl)]IKL-NH2)
316		CCC(=O)N[C@@H](Cc1nc2ccc(Cl)cc2s1)C(=O)N[C@H](CN)CC1CCCCC1 [Example 218]
307		CCC(=O)N[C@@H](Cc1nc2ccc(Cl)cc2s1)C(=O)N[C@H](C(=O)N[C@@H](CCCCN)C(=O)NC(c1ccc(F)cc1)c1ccc(F)cc1)C1CCCC1 [Example 158]
299		CCC(=O)N[C@@H](Cc1nc2ccc(Cl)cc2s1)C(=O)N[C@H](C(=O)N[C@@H](CC1CCN(C)CC1)C(=O)N[C@@H]1CCOc2ccccc21)C1CCOCC1 [Example 42]
282		CCC(=O)N[C@@H](Cc1nc2ccc(Cl)cc2s1)C(=O)N[C@@H](Cc1ccncc1)C(=O)N[C@@H](CCCCN)C(=O)N[C@@H]1CCOc2ccccc21 [Example 203]
273		CCC(=O)N[C@@H](Cc1ccc2ccccc2c1)C(=O)N[C@H](C(=O)N[C@@H](CCCCNC1CCN(C)CC1)C(=O)NC(c1ccc(F)cc1)c1ccc(F)cc1)C1CCCC1 [Example 144]
243		CCC(=O)N[C@@H](Cc1nc2ccc(C(C)C)cc2s1)C(=O)N[C@H](Cn1cc(CN)nn1)C1CCCCC1 [Example 82]
194		CCC(=O)N[C@@H](Cc1nc2ccc(Cl)cc2o1)C(=O)N[C@H](C(=O)N[C@@H](CCCCN)C(=O)NC(c1ccccc1)c1ccccc1)[C@@H](C)CC [Example 156]
156		CCC(=O)N[C@@H](Cc1nc2ccc(C)cc2s1)C(=O)N[C@H](C(=O)N[C@@H](CCCCN(C)C)C(=O)N[C@@H]1CCOc2ccccc21)C1CCOCC1 [Example 188]
149		CCC(=O)N[C@@H](Cc1nc2ccc(C)cc2s1)C(=O)N[C@@H](Cc1ccncc1)C(=O)N[C@@H](CCCCN)C(=O)N[C@@H]1CCOc2ccccc21 [Example 184]
139		CC(C)C(=O)N[C@@H](Cc1nc2ccc(C(C)C)cc2s1)C(=O)N[C@H](CN)C1CCCCC1 [Example 263]
138		CCC(=O)N[C@@H](Cc1nc2ccc(C(C)C)cc2s1)C(=O)N[C@H](COCCN1CCOCC1)C1CCCCC1 [Example 85]
138		CCC(=O)N[C@@H](Cc1nc2ccc(C(C)C)cc2s1)C(=O)N[C@@H](CC1CCCCC1)C(=O)N[C@@H](CCCCN)C(=O)N[C@@H](CC(C)C)C(N)=O [Example 289] (Propionyl-[Ala(6-iPr-benzothiazol-2-yl)][Cha]KL-NH2)
137		CCC(=O)N[C@@H](Cc1nc2cccc(Cl)c2s1)C(=O)N[C@H](C(=O)N[C@@H](CCCCN)C(=O)NC(c1ccccc1)c1ccccc1)C1CCCC1 [Example 31]
122		CC[C@H](C)[C@H](NC(=O)[C@H](Cc1nc2ccc(C(C)C)cc2s1)NC=O)C(=O)N[C@@H](CCCCN)C(=O)N[C@@H](CC(C)C)C(N)=O [Example 271] (For-[Ala(6-iPr-benzothiazol-2-yl)]IKL-NH2)
83		CCC(=O)N[C@@H](Cc1nc2ccc(C(C)C)cc2s1)C(=O)N[C@@H](CC(C)(C)C)C(=O)N[C@@H](CCCCN)C(=O)N[C@@H](CC(C)C)C(N)=O [Example 283] (Propionyl-[Ala(6-iPr-benzothiazol-2-yl)][tBuAla]KL-NH2)
79.6		CCC(=O)N[C@@H](Cc1nc2ccc(C(C)C)cc2s1)C(=O)N[C@H](CN)C1CCCCC1 [Example 56, (S)—N—((S)-2-amino-1-cyclohexylethyl)-3-(6-isopropylbenzo[d]thiazol-2-yl)-2-propionamidopropanamide]
79		CCC(=O)N[C@@H](Cc1nc2ccc(CC)cc2s1)C(=O)N[C@H](C(=O)N[C@@H](CCCCN)C(=O)N[C@@H]1CCOc2ccccc21)C1CCCC1 [Example 176]
75.6		CCC(=O)N[C@@H](Cc1nc2ccc(C(C)C)cc2s1)C(=O)N[C@H](CNC(=O)NC1CCN(C)CC1)C1CCCCC1 [Example 75]
72		CCC(=O)N[C@@H](Cc1nc2ccc(C(C)C)cc2s1)C(=O)N[C@H](C(=O)N[C@@H](CCCCN)C(=O)N[C@@H](CC(C)C)C(N)=O)C(C)C [Example 282] (Propionyl-[Ala(6-iPr-benzothiazol-2-yl)]VKL-NH2)
58.3		CCC(=O)N[C@@H](Cc1nc2ccc(C(C)C)cc2s1)C(=O)N[C@H](C(=O)N[C@@H](CCCCN)C(=O)N[C@@H](CC(C)C)C(N)=O)C1CCCCC1 [Example 286] (Propionyl-[Ala(6-iPr-benzothiazol-2-yl)][Chg]KL-NH2)
55.3		CCC(=O)N[C@@H](Cc1nc2ccc(C(C)C)cc2s1)C(=O)N[C@H](CNS(=O)(=O)C1CCNCC1)C1CCCCC1 [DI-777]
